As a reminder, the IC50 is the concentration that gives 50% inhibition. Usually Papp stands for the rate of passage across a membrane or cell layer, normalised by area and donor concentration. Lower therefore signals poor permeation. One may read the Ki as the equilibrium dissociation constant of an inhibitor or competing ligand from its target. High values mean a looser hold on the target, low ones a stronger hold on the target.

The target of series [1] is T1, hAChE (Homo sapiens, UniProt P22303). Briefly: biochemical. Conditions: for IC50: mean ± SEM of three independent measurements, each in triplicate. The class given is biochemical. How it is done:
(§1) The hAChE and hBuChE activities were determined using a modified method of Ellman with acetylthiocholine iodide (ATChI) and butyrylthiocholine iodide (BuTChI) as substrates, respectively.

Series [2] addresses T2, hBuChE (Homo sapiens, UniProt P06276). Briefly: biochemical. The class given is biochemical. As to the method: as §1
The target in series [3] is GSK-3β (Homo sapiens, UniProt P49841). Briefly: GSK-3β assay (Kinase-Glo Kit). The class given is biochemical. To be noted: for inhibition at 10 µM: tested at 10 µM compound concentration, read-out: GSK-3β (% inhib.). As to the method:
The GSK-3β assay was performed by using Kinase-Glo Kit obtained from Promega (Promega Biotech Iberica, SL, Madrid, Spain) as described previously.
In general terms: In Kinase-Glo more light means more ATP remaining.

The nature of series [4]: in vitro. Conditions: for PAMPA-BBB prediction of penetration in the CNS: class from Pe; for PAMPA-BBB Permeability (Pe) / Papp: PBS:EtOH (70:30) as solvent, mean ± SD of 2 independent experiments; for Papp: pig, PAMPA, PAMPA-BBB Permeability (Pe). As to the method:
The PAMPA assay was performed as previously described.

Series [5] concerns Jurkat (acute T cell leukemia). Briefly: WST-1 cytotoxicity assay, Jurkat. The series is classed as cell-based. Conditions: Homo sapiens, c = 10 μM, 48 h, percent of proliferation of untreated control cells. The source says: (§2) Selected human tumor and non-tumor cell lines {Jurkat (acute T cell leukemia), MOLT-4 (acute lymphoblastic leukemia), A549 (lung carcinoma), HT-29 (colorectal adenocarcinoma), PANC-1 (pancreas epithelioid carcinoma), A2780 (ovarian carcinoma), HeLa (cervix adenocarcinoma), MCF-7 (breast adenocarcinoma), SAOS-2 (osteosarcoma) and MRC-5 (normal lung fibroblasts)} were purchased from either ATCC (Manassas, VA, USA) or Sigma-Aldrich (St. Louis, MO, USA) and cultured according to the provider’s culture method guidelines. […] Cells in the maximum range of either 10 passages for primary cell line (MRC-5), or in the maximum range of 20 passages for cancer cell lines (Jurkat, MOLT-4, A549, HT-29, PANC-1, A2780, HeLa, MCF-7 and SAOS-2) and in an exponential growth phase were used for this study.
(§3) The WST-1 (Roche, Mannheim, Germany) reagent was used to determine the cytostatic effect of the test compounds. WST-1 is designed for the spectrophotometric quantification of cell proliferation, growth, viability and chemosensitivity in cell populations using a 96-well-plate format (Sigma, St. Louis, MO, USA). The principle of WST-1 is based on photometric detection of the reduction of tetrazolium salt to a colored formazan product. The cells were seeded at a previously established optimal density (30,000 Jurkat, 25,000 MOLT-4, 500 A549, 1500 HT-29, 2000 PANC-1, 5000 A2780, 500 HeLa, 1500 MCF-7, 2000 SAOS-2 and 2000 MRC-5 cells/well) in 100 µL of culture medium, and adherent cells were allowed to reattach overnight. Thereafter, the cells were treated with 100 µL of either corresponding alkaloids or doxorubicin stock solutions to obtain the desired concentrations and incubated in 5% CO2 at 37 °C. WST-1 reagent diluted 4-fold with PBS (50 µL) was added 48 h after treatment. Absorbance was measured after 3 h incubation with WST-1 at 440 nm. The measurements were performed in a Tecan Infinite M200 spectrometer (Tecan Group, Männedorf, Switzerland). All experiments were performed at least three times with triplicate measurements at each drug concentration per experiment. The viability was quantified as described previously according to the following formula: (%) viability = (Asample − Ablank)/(Acontrol − Ablank) × 100, where A is the absorbance of the employed WST-1 formazan measured at 440 nm. The viability of the treated cells was normalized to the viability of cells treated with 0.1% DMSO (Sigma-Aldrich) as a vehicle control.
In general terms: Tetrazolium dyes change colour on reduction, which living cells bring about.

The subject of series [6] is MOLT-4 (acute lymphoblastic leukemia). Description: WST-1 cytotoxicity assay, MOLT-4. Conditions: Homo sapiens, c = 10 μM, 48 h, percent of proliferation of untreated control cells, read-out: Cell proliferation, MOLT-4. The series is classed as cell-based.
Source text: as §2, §3

The subject of series [7] is A549 (lung carcinoma). Description: WST-1 cytotoxicity assay, A549. The class given is cell-based. To be noted: Homo sapiens, c = 10 μM, 48 h, percent of proliferation of untreated control cells, read-out: Cell proliferation, A549.
Source text: as §2, §3

Series [8] deals with HT-29 (colorectal adenocarcinoma). Description: WST-1 cytotoxicity assay, HT-29. Conditions: Homo sapiens, c = 10 μM, 48 h, percent of proliferation of untreated control cells, read-out: Cell proliferation, HT-29. The series is classed as cell-based.
Source text: as §2, §3

Series [9] deals with PANC-1 (pancreas epithelioid carcinoma). Briefly: WST-1 cytotoxicity assay, PANC-1. The series is classed as cell-based. To be noted: Homo sapiens, c = 10 μM, 48 h, percent of proliferation of untreated control cells, read-out: Cell proliferation, PANC-1.
Source text: as §2, §3

Series [10] concerns A2780 (ovarian carcinoma). Briefly: WST-1 cytotoxicity assay, A2780. The series is classed as cell-based. Conditions: Homo sapiens, c = 10 μM, 48 h, percent of proliferation of untreated control cells, read-out: Cell proliferation, A2780.
Source text: as §2, §3

Series [11] relates to HeLa (cervix adenocarcinoma). Briefly: WST-1 cytotoxicity assay, HeLa. The class given is cell-based. To be noted: Homo sapiens, c = 10 μM, 48 h, percent of proliferation of untreated control cells, read-out: Cell proliferation, HeLa.
Source text: as §2, §3

Series [12] deals with MCF-7 (breast adenocarcinoma). Description: WST-1 cytotoxicity assay, MCF-7. The class given is cell-based. Conditions: Homo sapiens, MCF7; c = 10 μM, 48 h, percent of proliferation of untreated control cells; read-out: Cell proliferation, MCF-7.
Source text: as §2, §3

The test system of series [13] is SAOS-2 (osteosarcoma). Description: WST-1 cytotoxicity assay, SAOS-2. The class given is cell-based. Conditions: Homo sapiens, c = 10 μM, 48 h, percent of proliferation of untreated control cells, read-out: Cell proliferation, SAOS-2.
Source text: as §2, §3

Series [14] deals with MRC-5 (normal lung fibroblasts). Description: WST-1 cytotoxicity assay, MRC-5. The class given is cell-based. Conditions: Homo sapiens, MRC5; c = 10 μM, 48 h, percent of proliferation of untreated control cells; read-out: Cell proliferation, MRC-5.
Source text: as §2, §3

Series [15] has as its system human cell lines (Jurkat, MOLT-4, A549, HT-29, PANC-1, A2780, HeLa, MCF-7, SAOS-2 and MRC-5). Description: WST-1 antiproliferative screen, whole panel of tested human cell lines. The series is classed as cell-based. Conditions: 10 µM single-dose, 48 h of exposure. How it is done:
The antiproliferative effect of 1a–1m at 10 µM single-dose treatment regimen was assessed using WST-1 tetrazolium salt assay. […] Kinetic analysis of 1j and 1m was used for the determination of their inhibition pattern against both hAChE and hBuChE. […] The Km and Vm values were calculated from the Lineweaver-Burk plot. […]
The WST-1 (Roche, Mannheim, Germany) reagent was used to determine the cytostatic effect of the test compounds. WST-1 is designed for the spectrophotometric quantification of cell proliferation, growth, viability and chemosensitivity in cell populations using a 96-well-plate format (Sigma, St. Louis, MO, USA). […] Absorbance was measured after 3 h incubation with WST-1 at 440 nm. […] The viability was quantified as described previously according to the following formula: (%) viability = (Asample − Ablank)/(Acontrol − Ablank) × 100, where A is the absorbance of the employed WST-1 formazan measured at 440 nm. […]

Series [16] addresses T1, hAChE. Briefly: AChE inhibition mechanism (Lineweaver-Burk kinetic analysis). The series is classed as biochemical. Conditions: Lineweaver-Burk plot; Km and Vm decreased. As to the method:
(§4) The antiproliferative effect of 1a–1m at 10 µM single-dose treatment regimen was assessed using WST-1 tetrazolium salt assay. […] Kinetic analysis of 1j and 1m was used for the determination of their inhibition pattern against both hAChE and hBuChE. […] The Km and Vm values were calculated from the Lineweaver-Burk plot.

Series [17] concerns the target T2, hBuChE. Briefly: BuChE inhibition mechanism (Lineweaver-Burk kinetic analysis). The series is classed as biochemical. Conditions: for mechanism of inhibition of hBuChE: Lineweaver-Burk plot, Km and Vm decreased. How it is done: as §4
The mark [18] stands for this setting: mean ± SEM of three independent measurements, each in triplicate, read-out: hBuChE IC50.

Where two headings read alike, the source gives them in different places.

T2 sequence (P06276 29-602): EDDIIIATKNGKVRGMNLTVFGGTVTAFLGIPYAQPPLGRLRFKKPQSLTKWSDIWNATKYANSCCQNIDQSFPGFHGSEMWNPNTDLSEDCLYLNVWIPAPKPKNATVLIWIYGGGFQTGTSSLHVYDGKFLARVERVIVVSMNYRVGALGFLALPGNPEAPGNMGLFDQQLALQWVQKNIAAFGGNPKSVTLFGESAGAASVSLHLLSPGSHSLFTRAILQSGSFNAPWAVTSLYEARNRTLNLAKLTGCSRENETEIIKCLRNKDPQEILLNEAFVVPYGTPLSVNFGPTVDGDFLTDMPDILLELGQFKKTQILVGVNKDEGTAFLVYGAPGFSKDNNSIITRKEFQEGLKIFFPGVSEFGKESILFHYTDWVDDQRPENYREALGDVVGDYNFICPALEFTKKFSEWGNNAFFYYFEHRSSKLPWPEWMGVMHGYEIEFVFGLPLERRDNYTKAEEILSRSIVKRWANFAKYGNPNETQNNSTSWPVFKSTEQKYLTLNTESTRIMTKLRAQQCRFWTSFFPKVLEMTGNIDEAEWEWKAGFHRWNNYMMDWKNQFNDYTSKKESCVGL
Chain of GSK-3β (P49841 whole entry): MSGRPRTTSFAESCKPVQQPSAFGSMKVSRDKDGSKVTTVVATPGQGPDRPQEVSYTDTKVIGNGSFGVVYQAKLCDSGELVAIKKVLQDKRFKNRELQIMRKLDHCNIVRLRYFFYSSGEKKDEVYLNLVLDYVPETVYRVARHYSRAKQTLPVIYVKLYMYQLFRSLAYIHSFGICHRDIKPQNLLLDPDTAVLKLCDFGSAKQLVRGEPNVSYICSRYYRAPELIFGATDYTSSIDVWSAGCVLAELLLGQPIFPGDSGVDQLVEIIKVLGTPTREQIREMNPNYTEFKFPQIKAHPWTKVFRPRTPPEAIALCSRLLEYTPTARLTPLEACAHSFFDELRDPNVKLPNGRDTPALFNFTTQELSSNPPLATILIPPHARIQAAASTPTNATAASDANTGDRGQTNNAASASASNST
T1 sequence (P22303 32-614): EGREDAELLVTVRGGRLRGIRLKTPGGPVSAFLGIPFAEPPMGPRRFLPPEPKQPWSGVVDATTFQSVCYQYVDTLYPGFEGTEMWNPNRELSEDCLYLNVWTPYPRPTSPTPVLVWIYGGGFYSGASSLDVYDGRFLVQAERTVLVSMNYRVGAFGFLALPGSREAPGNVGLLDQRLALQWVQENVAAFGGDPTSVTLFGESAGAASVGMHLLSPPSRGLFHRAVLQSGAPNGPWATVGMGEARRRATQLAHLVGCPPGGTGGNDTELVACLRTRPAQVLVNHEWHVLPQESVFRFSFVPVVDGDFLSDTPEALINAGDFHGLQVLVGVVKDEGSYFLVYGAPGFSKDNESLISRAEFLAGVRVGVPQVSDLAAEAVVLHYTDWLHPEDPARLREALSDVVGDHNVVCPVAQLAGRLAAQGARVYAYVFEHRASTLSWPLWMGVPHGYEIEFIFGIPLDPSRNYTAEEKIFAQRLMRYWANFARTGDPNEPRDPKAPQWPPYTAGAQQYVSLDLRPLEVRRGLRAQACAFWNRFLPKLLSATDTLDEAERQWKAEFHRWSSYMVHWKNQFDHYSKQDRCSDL

Regarding `COC1C=CC23c4cc5c(cc4CN(CC2OC(=O)c2ccccc2)C3C1)OCO5` (centres unmarked) [Compound 1g, 11-O-Benzoylhaemanthamine], the IC50 in series [1] stood at 294 ± 25 µM; in [2] (setting [18]), 5.8 ± 0.3 µM. Also, the “SI for hAChE” value in series [1] (selectivity index, ratio hBuChE IC50/hAChE IC50) is listed as 0.02. In addition, in [3], the inhibition at 10 µM came out at 11 ± 2%. In addition, the “PAMPA-BBB prediction of penetration in the CNS” value (“PAMPA-BBB prediction” for short) in series [4] was “CNS+ (CNS(+): high BBB permeation predicted with Pe (10^−6 cm.s^−1) > 4.0)”; in series [4] (listed as 18g) it was “CNS +”. The activity at 10 µM in [5] amounted to 83 ± 11%; in series [7] it was 98 ± 2%; in [8] it was 110 ± 17%; in [9], 100 ± 10%; in [10], 120 ± 10%; in series [11], 98 ± 2%. Moreover, the activity at 10 µM was determined as 108 ± 10% in [12], 104 ± 9% in series [13] and 101 ± 5% in series [14]. For the same compound, the viability at 10 µM in series [6] amounted to 110 ± 19%.

Consider `COC1C=CC23c4cc5c(cc4CN(CC2O)C3C1)OCO5` (centres unmarked) [Compound 1, Haemanthamine], for which, in series [1] (cholinesterase assay), the “hAChE inhibition activity, in words” value was “completely inactive”. The concentration for half-maximal inhibition (IC50) in series [1] and in [2] was more than 500 µM throughout. Besides, the “hBuChE inhibition activity, in words” value in series [2] (cholinesterase assay) was “completely inactive”. For the same compound, the “toxicity against the tested human cell lines, in words” value in [15] is “potent cytotoxic and apoptotic effects”.

`COC1C=CC23c4cc5c(cc4CN(CC2OC(=O)c2ccccc2C)C3C1)OCO5` (centres unmarked) [Compound 1j, 11-O-(2-Methylbenzoyl)haemanthamine]: the “SI for hAChE” value in [1] is listed as 0.4. Also, the results for the IC50 in series [1] and in [2] (setting [18]) were 18.2 ± 1.3 µM and 6.6 ± 1.2 µM, respectively. Besides, the inhibition at 10 µM in series [3] was 15 ± 6%. Besides, the “PAMPA-BBB Permeability (Pe)” value in [4] was 5.8 ± 0.9 10^−6 cm s^−1. Besides, the results for the “PAMPA-BBB prediction” value in [4] and in series [4] (listed as 18j) were “CNS+ (CNS(+): high BBB permeation predicted with Pe (10^−6 cm.s^−1) > 4.0)” and “CNS +”, respectively. The same compound returned a Papp in series [4] of more than 4 ×10⁻⁶ cm/s. Besides, the activity at 10 µM in [5] stood at 95 ± 11%; in [7], 96 ± 8%; in series [8], 98 ± 6%; in series [9], 95 ± 6%; in [10] it was 129 ± 11%; in series [11] it was 104 ± 4%. Besides, the activity at 10 µM in [12] was determined as 112 ± 3%; in series [13] it was 97 ± 17%; in [14] it was 112 ± 9%. Further, the viability at 10 µM in series [6] came to 91 ± 3%. Besides, in [16], the “mechanism of inhibition of hAChE” value is “mixed mechanism of inhibition”. Moreover, the “mechanism of inhibition of hBuChE” value in [17] was “mixed mechanism of inhibition”. In series [17] (from Lineweaver-Burk kinetic analysis), affinity was put at a Ki of 12.5 ± 0.45 µM.

On to `COC1C=CC23c4cc5c(cc4CN(CC2OC(=O)c2ccc([N+](=O)[O-])cc2)C3C1)OCO5` (centres unmarked) [Compound 1m, 11-O-(4-Nitrobenzoyl)haemanthamine], for which the IC50 in [1] was 14.7 ± 1.8 µM; in [2] (setting [18]) it was more than 500 µM; in [3] (mean ± SEM of three independent measurements) it was 34.8 ± 0.01 µM. The inhibition at 10 µM in series [3] came out at 27 ± 9%. Besides, the “PAMPA-BBB Permeability (Pe)” value in [4] is on record as 7.1 ± 0.3 10^−6 cm s^−1. For the same compound, the “PAMPA-BBB prediction” value is reported as “CNS+ (CNS(+): high BBB permeation predicted with Pe (10^−6 cm.s^−1) > 4.0)” in series [4] and “CNS +” in series [4] (listed as 18m). Besides, the Papp in series [4] is more than 4 ×10⁻⁶ cm/s. The activity at 10 µM in series [5] was 69 ± 7%; in series [7] it was 74 ± 6%; in series [8], 73 ± 2%; in series [9], 71 ± 7%; in series [10], 86 ± 4%; in series [11], 71 ± 1%. For the same compound, the activity at 10 µM in series [12] amounted to 62 ± 10%; in series [13], 69 ± 4%; in series [14] it was 61 ± 8%. Besides, the viability at 10 µM in [6] stood at 76 ± 12%. Further, the “mechanism of inhibition of hAChE” value in series [16] is recorded as “mixed mechanism of inhibition”. The “mechanism of inhibition of hBuChE” value in series [17] is “mixed mechanism of inhibition”.

These data come from paper PMC6480460, “Derivatives of the β-Crinane Amaryllidaceae Alkaloid Haemanthamine as Multi-Target Directed Ligands for Alzheimer’s Disease” (Molecules, 2019).
